Laboratory results taken from ChEMBL document CHEMBL1201862, “PubChem BioAssay data set” (2004).
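Method: 48-hour compound exposure of cells in 96-well plates, five concentrations, linear interpolation of endpoints. Here, GI50 denotes the concentration required for 50% inhibition of growth.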 Active and inactive are the calls of the source. Cut-off read from the data, not from the text of the source: active = GI50 up to about 1.1 µM and inactive = higher.

What was measured:
Test in all cases: NCI-60 cell line screen, 48 h
DMS-273 = system: DMS-273
KM-20L2 = system: KM-20L2
LXFL 529 = system: LXFL 529
RXF 631 = system: RXF 631
SNB-78 = system: SNB-78
XF498 = system: XF498
HOP-18 = system: HOP-18
BT-549 = system: BT-549
MDA-MB-231 = system: MDA-MB-231

Measured: GI50

O=C(CC1(O)C(=O)Nc2ccccc21)c1ccc2ccccc2c1 (configuration not stated)
inactive: DMS-273 > 100 µM | KM-20L2 > 100 µM | LXFL 529 > 100 µM | RXF 631 > 100 µM | SNB-78 > 100 µM | XF498 93.8 µM

COC(=O)CC(=O)OSc1ccccc1
inactive: DMS-273 22.7 µM | KM-20L2 20 µM | RXF 631 11.4 µM

Cc1cc(O)c(C(=O)CC2(O)C(=O)Nc3c(Cl)cc(Cl)cc32)c(=O)o1 (configuration not stated)
inactive: DMS-273 41.7 µM | HOP-18 > 100 µM | KM-20L2 > 100 µM | LXFL 529 > 100 µM | RXF 631 > 100 µM | SNB-78 > 100 µM | XF498 > 100 µM

NS(=O)(=O)c1ccc(NC(=O)C2C(=O)C(=O)N(c3ccc(S(N)(=O)=O)cc3)C2=O)cc1 (configuration not stated)
inactive: DMS-273 > 100 µM | HOP-18 > 100 µM | KM-20L2 > 100 µM | LXFL 529 > 100 µM | RXF 631 > 100 µM | SNB-78 > 100 µM

O=c1c2cc([N+](=O)[O-])ccc2sc2ccsc12
inactive: HOP-18 > 100 µM | KM-20L2 > 100 µM | LXFL 529 69.3 µM | RXF 631 > 100 µM | SNB-78 > 100 µM | XF498 > 100 µM

Cc1cccc(C)c1NC(=O)CCc1nnc(S)[nH]1
inactive: KM-20L2 > 100 µM | LXFL 529 > 100 µM | RXF 631 > 100 µM | SNB-78 > 100 µM | XF498 > 100 µM

CCCCCCCCOCC(O)COC(=O)CCCCCCC (configuration not stated)
inactive: DMS-273 44.6 µM | HOP-18 > 100 µM | KM-20L2 > 100 µM | LXFL 529 > 100 µM | RXF 631 > 100 µM

O=C(c1ccco1)c1ccccc1C(=O)c1ccco1
inactive: DMS-273 > 100 µM | HOP-18 61.5 µM | KM-20L2 > 100 µM | LXFL 529 > 100 µM | RXF 631 > 100 µM | SNB-78 > 100 µM | XF498 > 100 µM

CCOc1ccccc1NC(=O)CCc1nnc(S)[nH]1
inactive: HOP-18 > 100 µM | LXFL 529 > 100 µM | RXF 631 > 100 µM | SNB-78 > 100 µM

O=C(Nc1cccc(O)c1)C(=O)C1C(=O)NC(=S)NC1=O
inactive: DMS-273 > 100 µM | HOP-18 > 100 µM | KM-20L2 > 100 µM | LXFL 529 > 100 µM | SNB-78 > 100 µM | XF498 > 100 µM

CCOC(=O)[N-]c1ccc(S(=O)(=O)[O+](C)CCl)cc1.CCOC(=O)[N-]c1ccc(S(=O)(=O)[O+](C)CCl)cc1.NC(=O)N=O.NC(=O)OCCCl
inactive: HOP-18 > 100 µM | KM-20L2 > 100 µM | LXFL 529 > 100 µM | RXF 631 > 100 µM | SNB-78 > 100 µM | XF498 > 100 µM

Nc1ccc(-c2nc3ccccc3s2)cc1
inactive: BT-549 14.9 µM | HOP-18 86.9 µM | KM-20L2 37.8 µM | LXFL 529 17.5 µM | MDA-MB-231 17.9 µM | RXF 631 19.7 µM | SNB-78 21.6 µM

Nc1ncnc2c1ncn2C1C=C(CO)C(O)C1O (configuration not stated)
inactive: BT-549 1.99 µM | DMS-273 2.64 µM | HOP-18 24.3 µM | KM-20L2 14.7 µM | LXFL 529 16.7 µM | MDA-MB-231 2.19 µM | RXF 631 12.6 µM | SNB-78 30.9 µM | XF498 37.2 µM
